Data reported in patent US9737523B2, “Anti-fibrogenic compounds, methods and uses thereof” (priority 2013, dated 2017).

Tested on: MMPs
Assay: MMP activity in conditioned media of fibroblasts, SensoLyte 520 generic MMP assay (FRET)
Assay type: cell-based, human
Conditions: 50 μg/ml, 48 hours
Description: The activity of MMPs was assessed using a F-FAM/QXL™ 520 fluorescence resonance energy transfer (FRET) peptide as the MMP substrate (SensoLyte 520™ generic MMP assay kit, AnaSpec, Inc.™, Fremont, Calif.) according to the manufacturer's protocol. In brief, cells were treated with or without 50 μg/ml of kynurenine for 48 hours. Conditioned media were collected and incubated with 1 mM of APMA (4-aminophenyl-mercuric acetate, in component C, AnaSpect™) at 37° C. for 3 hrs. After activation MMPs with APMA, 50 μl/well in 96-well plate of conditioned media was mixed with 50 μl of MMP substrate solution. After incubated at room temperature for 60 minutes, the fluorescence intensity at EX/EM=490 nm/520 nm in each sample including the substrate control were measured using Infinite F500™ fluorescence microplate reader (Tecan Group Ltd™, Morrisville, N.C.).

Nc1ccccc1C(=O)CC(N)C(=O)O (racemic) [kynurenine]
mean activity of MMPs in conditioned media versus control media: significantly higher
